Read-outs that look alike come from different tables or passages of the source.
How the values were obtained:
[1] = tested on: Axin1 protein levels in DLD1 cells; assay: Western Blotting for Direct and Downstream Targets of TNKS Inhibitors: Axin 1; assay type: cell-based;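 further: compound exposure 20 to 22 hours before lysis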
Protocol: DLD1 cells were assayed for the effect of putative Tankyrase1/2 inhibitors on TNKS1/2, Axin1/2 and β-catenin protein levels. […] Reduction of nuclear accumulation of β-catenin and ultimately, reduction of β-catenin/TCF/LEF transcriptional activation of Wnt target genes should correlate with loss of Wnt-luc reporter signal in the Wnt reporter assay.
DLD1 cells were seeded in a 6-well dish at 10000 cells/well in DMEM supplemented with 10% FBS. […] After washing in TBS-T, the membrane was probed with a species specific secondary antibody conjugated to HRP (1:5000, Pierce/ThermoFisher), washed again in TBS-T and reacted with chemiluminescent detection reagents (ECL, GE Healthcare, cat. no. RPN2109) followed by exposure to X-ray film (FujiFilm XR).

DLD1 cells = assay: Long-Term Clonogenic Assay (DLD1 cells); assay type: cell-based
Protocol: Clonogenic Inhibition in DLD1 or HT55 Cells
In order to determine the efficacy of chronic dosing of putative TNKS inhibitors, long term clonogenic or ‘colony formation’ assays were carried out. This included the sparse seeding of cells in a 6-well dish followed by continuous dosing of cells over 12-14 days (depending on relative cell growth). Appropriate cell lines (DLD1 or HT55) were seeded at 500 cells/well in a 6-well dish in DMEM supplemented with FBS. […] Dosages were carried out in triplicate. Cell media containing compound or DMSO only was replenished every 48 hours. Termination of the assay included the fixation of cells with trichlororacetic acid (1 mL, 10% (v/v), Sigma Aldrich, cat. no. T6399) and incubation for 16 hours at 4° C. Fixed cells were then washed with water, allowed to dry and stained with sulforhodamine B solution (sulforhodamine B 0.05% (w/v), Sigma Aldrich cat. no. S1402, acetic acid 1% (v/v), Fisher Scientific, cat. no. A/0400/PB17)) for 12 hours at room temperature. The stain was then removed and the cells washed copiously with aqueous acetic acid (1% v/v) and allowed to dry.
The data was normalised to the DMSO control and was expressed as surviving fraction as a function of inhibitor dose.

[2] = tested on: TNKS stabilisation in HeLa, HT1080, HTC75 cells
TNKS1 = TNKS1 (Homo sapiens, UniProt O95271); assay: TNKS1/PARP Biochemical Assay (TNKS1)
[3] = tested on: Wnt activity in DLD1-Wnt-Luc cells; assay: Wnt-Luciferase Reporter Assay
[4] = read-out: Wnt IC50, DLD1-Wnt-Luc cells

IC50 [3, 4] [nM]	SMILES	stabilize Axin1 (Western blotting) [1]	Clonogenic SF50 (DLD1) (DLD1 cells) [µM]	stabilize TNKS (Western blotting) [2]	IC50 (TNKS1) [nM]	IC50 ([3]; read-out: Wnt IC50) [nM]
	CN1CCN(c2ccc(-c3cc4c(Cl)cccc4c(=O)[nH]3)cn2)CC1 [IQ-002-1]	stabilize Axin1	< 2	stabilize TNKS	< 50	
	Cc1cccc2c(=O)[nH]c(-c3ccc(N4CCN(C)CC4)nc3)cc12 [IQ-003]	stabilize Axin1	< 2	stabilize TNKS	21	12
	O=c1[nH]c(-c2ccc(N3CCNCC3)nc2)cc2c(Cl)cccc12 [IQ-027]	stabilize Axin1		stabilize TNKS	< 50	
	Cc1cccc2c(=O)[nH]c(-c3ccc(CN4CCCC4)cc3)cc12 [IQ-036]	stabilize Axin1		stabilize TNKS	< 50	
	Cc1cccc2c(=O)[nH]c(-c3ccc(CN4CCCCC4)cc3)cc12 [IQ-037]	stabilize Axin1		stabilize TNKS	< 50	
	Cc1cccc2c(=O)[nH]c(-c3ccc(CN4CCN(C)CC4)cc3)cc12 [IQ-038]		< 2	stabilize TNKS		
	Cc1cccc2c(=O)[nH]c(-c3ccc(CN4CCC(N(C)C)CC4)cc3)cc12 [IQ-053]			stabilize TNKS		
	Cc1cccc2c(=O)[nH]c(-c3ccc(C(=O)N(C)C4CCN(C)CC4)cc3)cc12 [IQ-100, N-Methyl-4-(5-methyl-1-oxo-1,2-dihydro-isoquinolin-3-yl)-N-(1-methyl-piperidin-4-yl)-benzamide]	stabilize Axin1		stabilize TNKS	< 20	
	COCCN1CCN(C(=O)c2ccc(-c3cc4c(C)cccc4c(=O)[nH]3)cc2)CC1 [IQ-102]	stabilize Axin1	< 2	stabilize TNKS	< 20	
	Cc1cccc2c(=O)[nH]c(-c3ccc(C(=O)N4CCC(N(C)C)CC4)cc3)cc12 [IQ-106]		< 2		< 50	
	Cc1cccc2c(=O)[nH]c(-c3ccc(S(=O)(=O)N4CCN(C)CC4)cc3)cc12 [IQ-121]		< 2		< 50	
	CNCCOc1ccc(-c2cc3c(C)cccc3c(=O)[nH]2)cc1 [IQ-127, 5-Methyl-3-[4-(2-methylamino-ethoxy)-phenyl]-2H-isoquinolin-1-one]	stabilize Axin1	< 2	stabilize TNKS	< 50	
< 5000	CN(C)CCOc1ccc(-c2cc3c(F)cccc3c(=O)[nH]2)cc1 [IQ-129]		< 2		< 50	
	Cc1cccc2c(=O)[nH]c(-c3ccc(OCCN(C)C)cc3)cc12 [IQ-130]	stabilize Axin1		stabilize TNKS	16	165
	Cc1cccc2c(=O)[nH]c(-c3ccc(OCCN4CCOCC4)cc3)cc12 [IQ-133]	stabilize Axin1		stabilize TNKS	< 500	
< 5000	CC(C)(C)OC(=O)N1CCN(Cc2ccc(-c3cc4c(Br)cccc4c(=O)[nH]3)cc2)CC1 [IQ-149, 4-[4-(5-Bromo-1-oxo-1,2-dihydro-isoquinolin-3-yl)-benzyl]-piperazine-1-carboxylic acid tert-butyl ester]		< 2		< 50	
	Cc1cc(F)cc2c(=O)[nH]c(-c3ccc(C(=O)N4CCN(C)CC4)cc3)cc12.O=CO [IQ-190]		< 2		< 20	
